# Measured values reported in patent US11661413B2, “Pyrazole compounds or salts thereof, preparation method therefor, herbicidal composition and use thereof” (priority 2015, dated 2023).
# Tests used:
# [1] = system: Barnyard grass; assay: weed control effect in post emergence stage, greenhouse pot spray; format: in vivo; settings: sprayed at 2-3 leaf stage, after 3 weeks
# Method: (§1) The activity level standard of harmful plant damage (i.e. growth inhibition rate) is as follows: The above described growth control rate is fresh weight control rate. Monocotyledonous and dicotyledonous weed seeds and main crop seeds (i.e. wheat, corn, rice, soybean, cotton, oilseed, millet and Sorghum) were put into a plastic pot loaded with soil. Then covered with 0.5-2 cm soil, the seeds were allowed to grow in good greenhouse environment. The test plants were treated at 2-3 leaf stage 2-3 weeks after sowing. […] The solution was sprayed to the plants with a sprayer. Then the plants were cultured for 3 weeks in the greenhouse.
# [2] = system: Flixweed; assay: as above; format: in vivo; settings: 16 g/mu, sprayed at 2-3 leaf stage, after 3 weeks
# Method: as §1
compound,measurement,setting,value
Cc1cc(C)n(Cc2c(S(C)(=O)=O)ccc(C(=O)c3c(C)nn(C)c3OC(=O)c3nc(Cl)ccc3Cl)c2Cl)n1 [Compound 40],"weed control effect (activity level), Barnyard grass",[1]; 1 g/mu,3 (above 30% growth inhibition rate)
same,"weed control effect (activity level), Barnyard grass",[1]; 2 g/mu,5 (above 50% growth inhibition rate)
same,"weed control effect (activity level), Barnyard grass",[1]; 4 g/mu,5 (above 50% growth inhibition rate)
same,"weed control effect (activity level), Barnyard grass",[1]; 8 g/mu,7 (above 70% growth inhibition rate)
same,"weed control effect (activity level), Barnyard grass",[1]; 16 g/mu,8 (above 80% growth inhibition rate)
same,"weed control effect (activity level), Flixweed",[2],10
Cn1ncc(C(=O)c2ccc(S(C)(=O)=O)c(Cn3cc(Cl)cn3)c2Cl)c1O [Compound 10],"weed control effect (activity level), Barnyard grass",[1]; 1 g/mu,2 (above 20% growth inhibition rate)
same,"weed control effect (activity level), Barnyard grass",[1]; 2 g/mu,4 (above 30% growth inhibition rate)
same,"weed control effect (activity level), Barnyard grass",[1]; 4 g/mu,4 (above 30% growth inhibition rate)
same,"weed control effect (activity level), Barnyard grass",[1]; 8 g/mu,7 (above 70% growth inhibition rate)
same,"weed control effect (activity level), Barnyard grass",[1]; 16 g/mu,8 (above 80% growth inhibition rate)
same,"weed control effect (activity level), Flixweed",[2],10
Cc1nn(C)c(O)c1C(=O)c1ccc(S(C)(=O)=O)c(Cn2nc(C(F)(F)F)cc2C(F)(F)F)c1Cl [Compound 41],"weed control effect (activity level), Barnyard grass",[1]; 1 g/mu,4 (above 30% growth inhibition rate)
same,"weed control effect (activity level), Barnyard grass",[1]; 2 g/mu,5 (above 50% growth inhibition rate)
same,"weed control effect (activity level), Barnyard grass",[1]; 4 g/mu,6 (above 60% growth inhibition rate)
same,"weed control effect (activity level), Barnyard grass",[1]; 8 g/mu,7 (above 70% growth inhibition rate)
same,"weed control effect (activity level), Barnyard grass",[1]; 16 g/mu,7 (above 70% growth inhibition rate)
same,"weed control effect (activity level), Flixweed",[2],10
CCc1nn(CC)c(O)c1C(=O)c1ccc(S(C)(=O)=O)c(Cn2nc(C)cc2C)c1Cl [Compound 26],"weed control effect (activity level), Barnyard grass",[1]; 1 g/mu,2 (above 20% growth inhibition rate)
same,"weed control effect (activity level), Barnyard grass",[1]; 2 g/mu,2 (above 20% growth inhibition rate)
same,"weed control effect (activity level), Barnyard grass",[1]; 4 g/mu,4 (above 30% growth inhibition rate)
same,"weed control effect (activity level), Barnyard grass",[1]; 8 g/mu,3 (above 30% growth inhibition rate)
same,"weed control effect (activity level), Barnyard grass",[1]; 16 g/mu,5 (above 50% growth inhibition rate)
same,"weed control effect (activity level), Flixweed",[2],10
Cc1nn(C(C)C)c(O)c1C(=O)c1ccc(S(C)(=O)=O)c(Cn2cc(Cl)cn2)c1Cl [Compound 30],"weed control effect (activity level), Barnyard grass",[1]; 1 g/mu,2 (above 20% growth inhibition rate)
same,"weed control effect (activity level), Barnyard grass",[1]; 2 g/mu,3 (above 30% growth inhibition rate)
same,"weed control effect (activity level), Barnyard grass",[1]; 4 g/mu,5 (above 50% growth inhibition rate)
same,"weed control effect (activity level), Barnyard grass",[1]; 8 g/mu,7 (above 70% growth inhibition rate)
same,"weed control effect (activity level), Barnyard grass",[1]; 16 g/mu,7 (above 70% growth inhibition rate)
same,"weed control effect (activity level), Flixweed",[2],10
CCn1nc(C2CC2)c(C(=O)c2ccc(S(C)(=O)=O)c(Cn3cc(C)cn3)c2Cl)c1O [Compound 22],"weed control effect (activity level), Barnyard grass",[1]; 1 g/mu,2 (above 20% growth inhibition rate)
same,"weed control effect (activity level), Barnyard grass",[1]; 2 g/mu,4 (above 30% growth inhibition rate)
same,"weed control effect (activity level), Barnyard grass",[1]; 4 g/mu,6 (above 60% growth inhibition rate)
same,"weed control effect (activity level), Barnyard grass",[1]; 8 g/mu,6 (above 60% growth inhibition rate)
same,"weed control effect (activity level), Barnyard grass",[1]; 16 g/mu,10
same,"weed control effect (activity level), Flixweed",[2],10
CCc1nn(CC)c(O)c1C(=O)c1ccc(S(C)(=O)=O)c(Cn2cc(C)cn2)c1Cl [Compound 25],"weed control effect (activity level), Barnyard grass",[1]; 1 g/mu,2 (above 20% growth inhibition rate)
same,"weed control effect (activity level), Barnyard grass",[1]; 2 g/mu,3 (above 30% growth inhibition rate)
same,"weed control effect (activity level), Barnyard grass",[1]; 4 g/mu,4 (above 30% growth inhibition rate)
same,"weed control effect (activity level), Barnyard grass",[1]; 8 g/mu,4 (above 30% growth inhibition rate)
same,"weed control effect (activity level), Barnyard grass",[1]; 16 g/mu,5 (above 50% growth inhibition rate)
same,"weed control effect (activity level), Flixweed",[2],10
Cc1cnn(Cc2c(S(C)(=O)=O)ccc(C(=O)c3c(C4CC4)nn(C)c3O)c2Cl)c1 [Compound 12],"weed control effect (activity level), Barnyard grass",[1]; 1 g/mu,2 (above 20% growth inhibition rate)
same,"weed control effect (activity level), Barnyard grass",[1]; 2 g/mu,4 (above 30% growth inhibition rate)
same,"weed control effect (activity level), Barnyard grass",[1]; 4 g/mu,6 (above 60% growth inhibition rate)
same,"weed control effect (activity level), Barnyard grass",[1]; 8 g/mu,7 (above 70% growth inhibition rate)
same,"weed control effect (activity level), Barnyard grass",[1]; 16 g/mu,8 (above 80% growth inhibition rate)
same,"weed control effect (activity level), Flixweed",[2],10
CCn1ncc(C(=O)c2ccc(S(C)(=O)=O)c(Cn3nc(C)cc3C)c2Cl)c1O [Compound 20],"weed control effect (activity level), Barnyard grass",[1]; 1 g/mu,3 (above 30% growth inhibition rate)
same,"weed control effect (activity level), Barnyard grass",[1]; 2 g/mu,4 (above 30% growth inhibition rate)
same,"weed control effect (activity level), Barnyard grass",[1]; 4 g/mu,6 (above 60% growth inhibition rate)
same,"weed control effect (activity level), Barnyard grass",[1]; 8 g/mu,6 (above 60% growth inhibition rate)
same,"weed control effect (activity level), Barnyard grass",[1]; 16 g/mu,8 (above 80% growth inhibition rate)
same,"weed control effect (activity level), Flixweed",[2],10
Cn1nc(C2CC2)c(C(=O)c2ccc(S(C)(=O)=O)c(Cn3cc(Cl)cn3)c2Cl)c1O [Compound 11],"weed control effect (activity level), Barnyard grass",[1]; 1 g/mu,2 (above 20% growth inhibition rate)
same,"weed control effect (activity level), Barnyard grass",[1]; 2 g/mu,4 (above 30% growth inhibition rate)
same,"weed control effect (activity level), Barnyard grass",[1]; 4 g/mu,4 (above 30% growth inhibition rate)
same,"weed control effect (activity level), Barnyard grass",[1]; 8 g/mu,6 (above 60% growth inhibition rate)
same,"weed control effect (activity level), Barnyard grass",[1]; 16 g/mu,7 (above 70% growth inhibition rate)
same,"weed control effect (activity level), Flixweed",[2],10
CCn1nc(C2CC2)c(C(=O)c2ccc(S(C)(=O)=O)c(Cn3nc(C)cc3C)c2Cl)c1O [Compound 23],"weed control effect (activity level), Barnyard grass",[1]; 1 g/mu,2 (above 20% growth inhibition rate)
same,"weed control effect (activity level), Barnyard grass",[1]; 2 g/mu,3 (above 30% growth inhibition rate)
same,"weed control effect (activity level), Barnyard grass",[1]; 4 g/mu,5 (above 50% growth inhibition rate)
same,"weed control effect (activity level), Barnyard grass",[1]; 8 g/mu,7 (above 70% growth inhibition rate)
same,"weed control effect (activity level), Barnyard grass",[1]; 16 g/mu,8 (above 80% growth inhibition rate)
same,"weed control effect (activity level), Flixweed",[2],10
Cc1cnn(Cc2c(S(C)(=O)=O)ccc(C(=O)c3cnn(C)c3O)c2Cl)c1 [Compound 7],"weed control effect (activity level), Barnyard grass",[1]; 1 g/mu,2 (above 20% growth inhibition rate)
same,"weed control effect (activity level), Barnyard grass",[1]; 2 g/mu,3 (above 30% growth inhibition rate)
same,"weed control effect (activity level), Barnyard grass",[1]; 4 g/mu,3 (above 30% growth inhibition rate)
same,"weed control effect (activity level), Barnyard grass",[1]; 8 g/mu,6 (above 60% growth inhibition rate)
same,"weed control effect (activity level), Barnyard grass",[1]; 16 g/mu,6 (above 60% growth inhibition rate)
same,"weed control effect (activity level), Flixweed",[2],10
CCn1nc(C)c(C(=O)c2ccc(S(C)(=O)=O)c(Cn3nc(C)cc3C)c2Cl)c1O [Compound 17],"weed control effect (activity level), Barnyard grass",[1]; 1 g/mu,2 (above 20% growth inhibition rate)
same,"weed control effect (activity level), Barnyard grass",[1]; 2 g/mu,2 (above 20% growth inhibition rate)
same,"weed control effect (activity level), Barnyard grass",[1]; 4 g/mu,2 (above 20% growth inhibition rate)
same,"weed control effect (activity level), Barnyard grass",[1]; 8 g/mu,4 (above 30% growth inhibition rate)
same,"weed control effect (activity level), Barnyard grass",[1]; 16 g/mu,5 (above 50% growth inhibition rate)
same,"weed control effect (activity level), Flixweed",[2],10
CCOc1c(C(=O)c2ccc(S(C)(=O)=O)c(Cn3nc(C)cc3C)c2Cl)c(C)nn1C [Compound 37],"weed control effect (activity level), Barnyard grass",[1]; 1 g/mu,0
same,"weed control effect (activity level), Barnyard grass",[1]; 2 g/mu,1 (above 1-10% growth inhibition rate)
same,"weed control effect (activity level), Barnyard grass",[1]; 4 g/mu,1 (above 1-10% growth inhibition rate)
same,"weed control effect (activity level), Barnyard grass",[1]; 8 g/mu,2 (above 20% growth inhibition rate)
same,"weed control effect (activity level), Barnyard grass",[1]; 16 g/mu,2 (above 20% growth inhibition rate)
same,"weed control effect (activity level), Flixweed",[2],2 (above 20% growth inhibition rate)
CCS(=O)(=O)Oc1c(C(=O)c2ccc(S(C)(=O)=O)c(Cn3cc(C)cn3)c2Cl)c(C)nn1C [Compound 32],"weed control effect (activity level), Barnyard grass",[1]; 1 g/mu,5 (above 50% growth inhibition rate)
same,"weed control effect (activity level), Barnyard grass",[1]; 2 g/mu,6 (above 60% growth inhibition rate)
same,"weed control effect (activity level), Barnyard grass",[1]; 4 g/mu,5 (above 50% growth inhibition rate)
same,"weed control effect (activity level), Barnyard grass",[1]; 8 g/mu,7 (above 70% growth inhibition rate)
same,"weed control effect (activity level), Barnyard grass",[1]; 16 g/mu,8 (above 80% growth inhibition rate)
same,"weed control effect (activity level), Flixweed",[2],10
CCn1nc(C)c(C(=O)c2ccc(S(C)(=O)=O)c(Cn3cc(C)cn3)c2Cl)c1O [Compound 16],"weed control effect (activity level), Barnyard grass",[1]; 1 g/mu,2 (above 20% growth inhibition rate)
same,"weed control effect (activity level), Barnyard grass",[1]; 2 g/mu,3 (above 30% growth inhibition rate)
same,"weed control effect (activity level), Barnyard grass",[1]; 4 g/mu,4 (above 30% growth inhibition rate)
same,"weed control effect (activity level), Barnyard grass",[1]; 8 g/mu,4 (above 30% growth inhibition rate)
same,"weed control effect (activity level), Barnyard grass",[1]; 16 g/mu,6 (above 60% growth inhibition rate)
same,"weed control effect (activity level), Flixweed",[2],10
CCc1nn(C(C)C)c(O)c1C(=O)c1ccc(S(C)(=O)=O)c(Cn2nc(C)cc2C)c1Cl [Compound 29],"weed control effect (activity level), Barnyard grass",[1]; 1 g/mu,2 (above 20% growth inhibition rate)
same,"weed control effect (activity level), Barnyard grass",[1]; 2 g/mu,3 (above 30% growth inhibition rate)
same,"weed control effect (activity level), Barnyard grass",[1]; 4 g/mu,5 (above 50% growth inhibition rate)
same,"weed control effect (activity level), Barnyard grass",[1]; 8 g/mu,7 (above 70% growth inhibition rate)
same,"weed control effect (activity level), Barnyard grass",[1]; 16 g/mu,8 (above 80% growth inhibition rate)
same,"weed control effect (activity level), Flixweed",[2],10
Cc1cc(C)n(Cc2c(S(C)(=O)=O)ccc(C(=O)c3cnn(C)c3O)c2Cl)n1 [Compound 9],"weed control effect (activity level), Barnyard grass",[1]; 1 g/mu,2 (above 20% growth inhibition rate)
same,"weed control effect (activity level), Barnyard grass",[1]; 2 g/mu,2 (above 20% growth inhibition rate)
same,"weed control effect (activity level), Barnyard grass",[1]; 4 g/mu,3 (above 30% growth inhibition rate)
same,"weed control effect (activity level), Barnyard grass",[1]; 8 g/mu,5 (above 50% growth inhibition rate)
same,"weed control effect (activity level), Barnyard grass",[1]; 16 g/mu,5 (above 50% growth inhibition rate)
same,"weed control effect (activity level), Flixweed",[2],10
